Data taken from PubChem BioAssay (NCI).
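Five compound concentrations were applied to cells in 96-well plates for 48 hours; endpoints were derived by simple linear interpolation of the resulting dose-response curve. TGI is the concentration that stops growth completely.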

What was measured:
Test in all cases: NCI-60 cell line screen, 48 h
LOX IMVI melanoma = test system: LOX IMVI melanoma
ACHN renal = test system: ACHN renal
HS 578T breast = test system: HS 578T breast
U251 CNS = test system: U251 CNS
CAKI-1 renal = test system: CAKI-1 renal
BT-549 breast = test system: BT-549 breast
T-47D breast = test system: T-47D breast
SNB-19 CNS = test system: SNB-19 CNS
TK-10 renal = test system: TK-10 renal
SK-MEL-5 melanoma = test system: SK-MEL-5 melanoma
786-0 renal = test system: 786-0 renal
SF-268 CNS = test system: SF-268 CNS
OVCAR-5 ovarian = test system: OVCAR-5 ovarian
OVCAR-8 ovarian = test system: OVCAR-8 ovarian
SK-MEL-28 melanoma = test system: SK-MEL-28 melanoma
SF-539 CNS = test system: SF-539 CNS
A498 renal = test system: A498 renal
UO-31 renal = test system: UO-31 renal
A549 NSCLC = test system: A549 NSCLC
HCC-2998 colon = test system: HCC-2998 colon
M14 melanoma = test system: M14 melanoma
RPMI-8226 leukemia = test system: RPMI-8226 leukemia
PC-3 prostate = test system: PC-3 prostate
K-562 leukemia = test system: K-562 leukemia
IGROV1 ovarian = test system: IGROV1 ovarian
COLO 205 colon = test system: COLO 205 colon
HCT-116 colon = test system: HCT-116 colon
CCRF-CEM leukemia = test system: CCRF-CEM leukemia
NCI-H23 lung = test system: NCI-H23 lung
MDA-MB-435 = test system: MDA-MB-435
MOLT-4 leukemia = test system: MOLT-4 leukemia
SW-620 colon = test system: SW-620 colon
SN12C renal = test system: SN12C renal
RXF 393 renal = test system: RXF 393 renal
SK-OV-3 ovarian = test system: SK-OV-3 ovarian
HL-60(TB) leukemia = test system: HL-60(TB) leukemia
HT29 colon = test system: HT29 colon
HCT-15 colon = test system: HCT-15 colon
UACC-257 melanoma = test system: UACC-257 melanoma
SR leukemia = test system: SR leukemia
NCI/ADR-RES ovarian = test system: NCI/ADR-RES ovarian
EKVX NSCLC = test system: EKVX NSCLC
SNB-75 CNS = test system: SNB-75 CNS
MDA-N = test system: MDA-N
SK-MEL-2 melanoma = test system: SK-MEL-2 melanoma
NCI-H460 lung = test system: NCI-H460 lung
DU-145 prostate = test system: DU-145 prostate
OVCAR-3 ovarian = test system: OVCAR-3 ovarian
HOP-92 NSCLC = test system: HOP-92 NSCLC
MDA-MB-231 breast = test system: MDA-MB-231 breast
HOP-62 NSCLC = test system: HOP-62 NSCLC
MCF7 breast = test system: MCF7 breast
SF-295 CNS = test system: SF-295 CNS
NCI-H522 lung = test system: NCI-H522 lung
UACC-62 melanoma = test system: UACC-62 melanoma
KM12 colon = test system: KM12 colon
OVCAR-4 ovarian = test system: OVCAR-4 ovarian

Measured: TGI

CCOC(=O)C(NC(=O)Nc1ccccc1F)(OC)C(F)(F)F (stereo not drawn)
not listed: NCI-H460 lung | DU-145 prostate | OVCAR-3 ovarian | HOP-92 NSCLC | MDA-MB-231 breast | HOP-62 NSCLC | MCF7 breast | SF-295 CNS | NCI-H522 lung | UACC-62 melanoma | KM12 colon | OVCAR-4 ovarian
> 100 µM: all other assays above

c1ccc2c(c1)SCCCSCCCS2
74.5 µM: HL-60(TB) leukemia
not listed: ACHN renal | HS 578T breast | CAKI-1 renal | A498 renal | UO-31 renal | RPMI-8226 leukemia | RXF 393 renal | HT29 colon | SK-MEL-2 melanoma
> 100 µM: all other assays above
